The source of these data is patent publication US7932262B2 (Novartis AG, priority 2006, dated 2011).

The target in the first test is T1, PDK1 kinase (Homo sapiens, UniProt O15530).
T1 sequence (O15530 1-556): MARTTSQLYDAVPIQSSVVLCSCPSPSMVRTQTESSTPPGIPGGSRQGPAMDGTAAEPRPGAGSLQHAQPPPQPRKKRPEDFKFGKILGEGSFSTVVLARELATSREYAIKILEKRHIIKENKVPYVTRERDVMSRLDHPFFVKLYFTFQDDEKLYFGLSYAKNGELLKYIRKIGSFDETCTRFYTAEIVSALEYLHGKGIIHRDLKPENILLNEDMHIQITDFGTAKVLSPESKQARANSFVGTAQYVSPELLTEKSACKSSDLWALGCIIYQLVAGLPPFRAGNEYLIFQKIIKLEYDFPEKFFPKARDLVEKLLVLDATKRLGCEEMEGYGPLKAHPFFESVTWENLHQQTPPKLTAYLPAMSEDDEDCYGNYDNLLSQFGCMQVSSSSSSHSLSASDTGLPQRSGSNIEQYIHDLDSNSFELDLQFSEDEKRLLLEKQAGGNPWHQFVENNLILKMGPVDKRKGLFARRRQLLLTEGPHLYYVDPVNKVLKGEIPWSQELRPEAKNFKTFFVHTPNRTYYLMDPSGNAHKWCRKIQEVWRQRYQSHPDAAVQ
The test is described as follows: PDK1 Kinase Alpha Screen Assay. Type of test: biochemical. To be noted: PDK1 Kinase Alpha Screen Assay; read-out: PDK1 IC50. As to the method:
1. PDK1 Kinase Alpha Screen Assay
Reagents/Concentrations: The PDK1-4 peptide substrate, biotin-[…]-NH2, was purchased from the Tufts University Core Facility. The final concentration of PDK1-4 peptide substrate was 50 nM The ATP substrate (Adenosine-5′-triphosphate) was purchased from Roche Diagnostics. The final concentration of ATP substrate was 10 uM. Phospho-(Ser/Thr) PKA substrate antibody was purchased from Cell Signaling Technology. The final concentration of antibody was 0.3 mg/ml. The Alpha Screen Protein A detection kit containing donor and acceptor beads was purchased from PerkinElmer Life Sciences. The final concentration of both donor and acceptor beads was 25 μg/ml. Alpha Screen was used for detection. The biotinylated-PDK1-4 peptide was phosphorylated by PDK1 kinase using the ATP substrate. The biotinylated-PDK1-4 peptide substrate was bound to the streptavidin coated donor bead. The antibody was bound to the protein A coated acceptor bead. The antibody bound to the phosphorylated form of the biotinylated PDK-1 peptide substrate, bringing the donor and acceptor beads into close proximity. Laser irradiation of the donor bead at 680 nm generated a flow of short-lived singlet oxygen molecules. When the donor and acceptor beads were in close proximity, the reactive oxygen generated by the irradiation of the donor beads initiated a luminescence/fluorescence cascade in the acceptor beads. This process led to a highly amplified signal with output in the 530-620 nm range. Assays were carried out in 50 mM Tris, pH=7.5, 10 mM MgCl2, 0.1% Bovine Serum Albumin, 0.01% Tween-20, 2 mM Dithiolthreitol, 2.5% Dimethyl Sulfoxide. Reactions were stopped by adding 50 mM Tris, pH=7.5, 90 mM EDTA, 0.1% Bovine Serum Albumin, 0.01% Tween-20.
Procedure: To 10 μl of PDK1-4 peptide, 0.5 μl of test compound in dimethyl sulfoxide is added. PDK1 kinase and ATP are mixed. 10 μl of the PDK1 kinase/ATP mix is added to start the reaction. The reaction is allowed to proceed for 3-18 hours. The reactions are stopped by adding 10 μl of the EDTA-containing stop buffer. Beads are mixed with antibody. 25 μl of the bead/antibody mix is added to the stopped reactions. Plates are incubated at room temperature overnight to allow for detection development before being read. The assay is run is a 384-well format. […]
As for `COc1ccccc1Oc1cccc2cnc(Nc3ccc(S(N)(=O)=O)cc3)nc12` [Compound 408, 4-(8-(2-methoxyphenoxy)quinazolin-2-ylamino)benzenesulfonamide], the IC50 is < 5 µM. Same read-out and setting: as for `NC(=O)c1cccc(Oc2cccc3cnc(Nc4ccc(S(N)(=O)=O)cc4)nc23)c1` [Compound 411, 3-(2-(4-sulfamoylphenylamino)quinazolin-8-yloxy)benzamide], the figure is < 5 µM; as for `NS(=O)(=O)c1ccc(Nc2ncc3cccc(Oc4ccnc(F)c4)c3n2)cc1` [Compound 412, 4-(8-(2-fluoropyridin-4-yloxy)quinazolin-2-ylamino)benzenesulfonamide], < 5 µM; as for `NS(=O)(=O)c1ccc(Nc2ncc3ccc(Oc4ccnc(F)c4)cc3n2)cc1` [Compound 416, 4-(7-(2-fluoropyridin-4-yloxy)quinazolin-2-ylamino)benzenesulfonamide], < 5 µM.

The same test, now with this note: read-out: PDK1 IC50.
Turning to `CCCCNS(=O)(=O)c1cccc(Nc2ncc3cccc(-c4cccc(NC(C)=O)c4)c3n2)c1` [Compound 87, N-{3-[2-(3-Butylsulfamoyl-phenylamino)-quinazolin-8-yl]-phenyl}-acetamide], the IC50 was 5 to 10 µM.

For `NC(=O)c1ccccc1-c1ccc2cnc(Nc3ccc(S(N)(=O)=O)cc3)nc2c1` [Compound 125, 2-[2-(4-Sulfamoyl-phenylamino)-quinazolin-7-yl]-benzamide], the IC50 was < 5 µM. Turning to `CC(=O)Nc1cccc(-c2ccc3cnc(Nc4ccc(S(N)(=O)=O)cc4)nc3c2)c1` [Compound 126, N-{3-[2-(4-Sulfamoyl-phenylamino)-quinazolin-7-yl]-phenyl}-acetamide], the IC50 fell in the range of 5 to 10 µM. Still for that read-out and setting: then `CS(=O)(=O)c1cccc(-c2ccc3cnc(Nc4ccc(S(N)(=O)=O)cc4)nc3c2)c1` [Compound 128, 4-[7-(3-Methanesulfonyl-phenyl)-quinazolin-2-ylamino]-benzenesulfonamlde], with < 5 µM; and `CS(=O)(=O)Nc1cccc(-c2ccc3cnc(Nc4ccc(S(N)(=O)=O)cc4)nc3c2)c1` [Compound 129, 4-[7-(3-Methanesulfonylamino-phenyl)-quinazolin-2-ylamino]-benzenesulfonamide], with 10 to 25 µM.

In another test the test system is PC-3 cells. Briefly: Cell Proliferation Assay (Cell Titer Glo), PC-3 cell line. The test is classed as cell-based. To be noted: Homo sapiens, PC-3, Cell Proliferation Assay, PC3; read-out: CPEC50 PC3. On the procedure:
IV. Cell Proliferation Assay Protocol:
A2780, PC-3, or PC3MM cells were seeded at 1000 cells/well in 100 μL/well (10.000 cells/mL) growth media in 96-well plates. Cells were allowed to adhere to the bottom of plates for 3-5 hours in a 37° C. 5% CO2 incubator. Compounds were dissolved in DMSO and then transferred to the cell plates. The cells were incubated with the compounds for 3 days in a 37° C. 5% CO2 incubator. The growth medium containing the compounds was then removed from the cells and fresh medium was added, followed by 100 μL of Cell Titer Glo assay reagent (Promega). This mixture was shaken for 1 minute and then incubated without shaking for 10 minutes. Activity determinations for the compounds were made by detection on a Trilux Instrument.
V. Cell Proliferation Assay Protocol: PC-3 Cell Line
PC-3 cells were seeded at 1000 cells/well in 100 μL/well (10.000 cells/mL) along with growth media into black-walled, clear bottom 96-well plates. The cells were allowed to adhere to the bottom of the plate for 3-5 hours in a 37° C. 5% CO2 incubator.
Test compounds were diluted to 500× in DMSO. The DMSO solutions of six of the compounds were transferred to the cells in the 96 well round bottom plate, column 2, row B-F. A 1:3 serial dilution of each compound was carried out. The serial dilution comprised adding 20 μL of DMSO to the wells containing the compounds and doing a 1:3 dilution across the plate from columns 2-10. Column 11 contained only DMSO. The serial dilution was carried out using a BioMek 2000 protocol “CP Serial Dilution using 250 μL tips” or “Proliferation Compound” (if using 20 μL tips).
To a 96 deep well block, columns 2-11 rows B-F, was transferred 500 μL of growth medium. Using the FX protocol “HH_CellAssay—2 μL to 500 μL”, 2 μL of compound from each cell of the compound plate was transferred to the corresponding cell in the 96 deep well block containing 500 μL of growth medium. The instrument was programmed to dilute the compound in growth medium and then transfer 100 μL of that mixture to cell plates containing cells. The cell plates, to which test compounds had been added, were incubated for 3 days at 37° C. Following the incubation, the medium was removed and replaced with fresh medium. Cell Titer Glo (100 μL) was added to each well and the plate was shaken for 1 minute and then incubated without shaking for 10 minutes. The plates were then read using a Trilux instrument.
As for `CNc1ncc2ccc(OC3CCN(C(C)C)CC3)cc2n1` [Compound 322, 7-(1-isopropylpiperidin-4-yloxy)-N-methylquinazolin-2-amine], the EC50 is 5 to 10 µM. `CNc1ncc2ccc(O)c(C3CCN(C(C)C)CC3)c2n1` [Compound 323, 8-(1-isopropylpiperidin-4-yl)-2-(methylamino)quinazolin-7-ol]: the EC50 is 5 to 10 µM. On the same count and under the same terms, as for `CC(C)N1CCC(Oc2ccc3cnc(Nc4nc5ccccc5s4)nc3c2)CC1` [Compound 324, N-(7-(1-isopropylpiperidin-4-yloxy)quinazolin-2-yl)benzo[d]thiazol-2-amine], the figure is < 5 µM; as for `O=C(NC1CCNCC1)c1ccc(Nc2ncc3c(Br)ccc(OC4CCNCC4)c3n2)cc1` [Compound 370, 4-(5-bromo-8-(piperidin-4-yloxy)quinazolin-2-ylamino)-N-(piperidin-4-yl)benzamide], 5 to 10 µM.

With `COc1cc(C(=O)NC2CCN(C)CC2)ccc1Nc1ncc2c(Br)ccc(OC3CCNCC3)c2n1` [Compound 371, 4-(5-bromo-8-(piperidin-4-yloxy)quinazolin-2-ylamino)-3-methoxy-N-(1-methylpiperidinyl)benzamide], the EC50 lay within 5 to 10 µM.

As for `Brc1ccc(OC2CCNCC2)c2nc(Nc3ccc(N4CCNCC4)cc3)ncc12` [Compound 372, 5-bromo-N-(4-(piperazin-1-yl)phenyl)-8-(piperidin-4-yloxy)quinazolin-2-amine], the EC50 is < 5 µM. Still for that read-out and setting: then `Cc1ccc(OC2CCNCC2)c2nc(Nc3ccc(N4CCNCC4)cc3)ncc12` [Compound 374, 5-methyl-N-(4-(piperazin-1-yl)phenyl)-8-(piperidin-4-yloxy)quinazolin-2-amine], with 5 to 10 µM; and `Cc1ccc(OC2CCNCC2)c2nc(Nc3ccc(C(=O)NC4CCNCC4)cc3)ncc12` [Compound 376, 4-(5-methyl-8-(piperidin-4-yloxy)quinazolin-2-ylamino)-N-(piperidin-4-yl)benzamide], with 5 to 10 µM. The same measure, in the same setting: then `CC(C)N1CCC(Oc2cccc3cnc(NC(=O)c4ccccc4)nc23)CC1` [Compound 541, N-(8-(1-isopropylpiperidin-4-yloxy)quinazolin-2-yl)benzamide], with 5 to 10 µM; and `CC(C)N1CCC(Oc2cccc3cnc(NS(=O)(=O)c4ccccc4)nc23)CC1` [Compound 542, N-(8-(1-isopropylpiperidin-4-yloxy)quinazolin-2-yl)benzenesulfonamide], with 5 to 10 µM; and `CC(C)N1CCC(Nc2ncc3cccc(O)c3n2)CC1` [Compound 543, 2-(1-isopropylpiperidin-4-ylamino)quinazolin-8-ol], with 5 to 10 µM. With `CC(=O)Nc1ncc2cccc(OC3CCN(C(C)C)CC3)c2n1` [Compound 544, N-(8-(1-isopropylpiperidin-4-yloxy)quinazolin-2-yl)acetamide], the EC50 was in the range of 5 to 10 µM. Still for that read-out and setting: then `NS(=O)(=O)c1ccc(Nc2ncc3cc(C(=O)Nc4cccc(NC(=O)c5ccccc5)c4)ccc3n2)cc1` [Compound 578, N-(3-benzamidophenyl)-2-(4-sulfamoylphenylamino)quinazoline-6-carboxamide], with < 5 µM; and `CC(C)NC(=O)c1ccc(Nc2ncc3ccc(Oc4ccccc4)cc3n2)cc1` [Compound 591, N-isopropyl-4-(7-phenoxyquinazolin-2-ylamino)benzamide], with < 5 µM.

The same test, now with this note: Homo sapiens, PC-3, PC3 cells; read-out: CPEC50 PC3.
For `Nc1ncc(-c2ccc3cnc(Nc4ccc(S(N)(=O)=O)cc4)nc3c2OC2CCNCC2)cc1C(F)(F)F` [Compound 933, 4-(7-(6-amino-5-(trifluoromethyl)pyridin-3-yl)-8-(piperidin-4-yloxy)quinazolin-2-ylamino)benzenesulfonamide], the EC50 was < 5 µM.
